In data set [1] the test system is Matrix metalloprotease-I (MMP-I). Briefly: Collagen protection: degradation of collagen type I in ECM replicates by MMP-I (hydroxyproline assay). It is filed as biochemical. The conditions noted are these: CI + HA + treatment, 50 hr at 37° C. The protocol:
ECM-based constructs containing collagen alone, collagen+HA+CS, or collagen+HA+10.5GAH−CS were created in 8-well chambered slides as described previously. The final sample volume was 200 μL consisting of 0.8 mg of collagen type I. Matrix metalloprotease-I (MMP-I, R&D Systems, Minneapolis, Minn.) at a concentration of 0.133 mg/mL, was activated following the protocol detailed in the manufacturer's instructions. Briefly, MMP-1, already dissolved in manufacturer's buffer (50 mM Tris, 10 mM CaCl2, 150 mM NaCl, 0.05% Brij-35, pH 7.5), was combined with an equal volume of 25 mM APMA (Sigma) in DMSO at 37° C. for 2 hrs to activate the enzyme. Upon activation, the MMP-1 solution was diluted two fold in water and was added to the sample as a 100 μL supernatant. […] Following hydrolysis, the amount of hydroxyproline (hyp) was analyzed according to the protocol developed by Reddy, et al. (Clin Biochem, 1996, 29: 225-9). […] After the development of the chlorophore, the samples were read on a spectrophotometer at a wavelength of 550 nm. Absorbance readings were compared to those obtained from known concentrations of collagen to determine the amount of collagen remaining in each sample.
Each replicate sample was constructed with 0.8 mg of CI, and after degradation, the remaining CI amount was determined by the protocol developed by Reddy et al. and converting that to CI amount by a set of CI standards. […]

Data set [2] has as its system Hyaluronidase (Type II from Sheep Testes). Briefly: Protection of hyaluronic acid from hyaluronidase degradation (dynamic viscosity). It is filed as biochemical. To be noted: 0.5 wt % HA, 75:1 treatment to HA molar ratio. The protocol:
Dynamic viscosity values of HA solutions were determined using the AR-G2. High molecular weight HA solutions have a large viscosity due to the extensive chain entanglement caused by the long chain length. Hyaluronidase (Type II from Sheep Testes, Sigma) cleaves the HA chain, creating shorter chains with less entanglement. The shorter HA chains will have a measurably lower viscosity. HA solutions were incubated with 100 units/mL hyaluronidase. Dynamic viscosities were determined using a time sweep with constant angular frequency and oscillatory stress initially and at 2 and 4-hour timepoints. Samples (at 0.5 wt % HA) consisted of HA, HA+CS, and HA+10.5GAH−CS. The treatment values were added at a 75:1 treatment to HA molar ratio. The percent degradation was calculated for each measurement by dividing the initial viscosity from the difference of the measured viscosity minus the initial viscosity.
Viscosities of each treatment without hyaluronidase (TES Buffer replaced the hyaluronidase volume) were initially measured and served as the baseline for the percent degradation calculations. The 0 hr timepoint involved the addition of the hyaluronidase, mixing of the solution, pipetting onto the rheometer, and the beginning equilibration operation of the machine. Therefore, the 0 hr timepoint occurred approximately two minutes after the addition of hyaluronidase. […]

Data set [3] in a line: Diffusion of peptidoglycans through cartilage matrix (avidin-biotin stain). To be noted: aggrecan-depleted bovine cartilage explant, 10 μM diffused through articular surface for one hour. The protocol: Cartilage explants were obtained from the load bearing region of three month old bovine knee joints. Native aggrecan was removed from harvested cartilage explants leaving a matrix consisting primarily of type II collagen and residual GAG. This was achieved by treating explants with 0.5% (w/v) trypsin in HBSS for 3 hours at 37° C. (FIG. 13). After trypsin treatment explants were washed three times in HBSS and incubated with 20% FBS to inactivate residual trypsin activity. Peptidoglycan was dissolved in distilled water at 10 μM concentration and diffused through the articular surface of cartilage explants by placing 10 μL of the solution on the surface every ten minutes for one hour at room temperature (FIG. 14). Normal cartilage and aggrecan depleted cartilage were treated with 1×PBS as positive and negative controls respectively. After diffusion, explants were washed three times with 1×PBS and stored at −20° C. until further testing. Diffusion of peptidoglycan was confirmed by staining a midsagittal section of the tissue with streptavidin-horseradish peroxidase stain. The streptavidin stain binds to the biotin labeled molecule and is depicted as a brown color (FIGS. 15 and 16).

Data set [4] concerns bovine chondrocytes in collagen scaffolds. In words: In vitro inflammation model: CS release into media (DMMB assay). The conditions noted are these: cumulative over eight-day culture, with and without 20 ng/mL IL-1β, versus scaffolds with CS. It is filed as cell-based. The protocol: (§1) Collagen scaffolds seeded with chondrocytes were stimulated with IL-1β and assessed for degradation products.
(§2) Primary chondrocytes were harvested from three-month-old bovine knee joints obtained from an abattoir within 24 hours of slaughter (Dutch Valley Veal). Cartilage slices, 150-200 μm thick, were shaved from the lateral femoral condyle and washed three times in serum-free DMEM/F-12 medium (50 μg/mL ascorbic acid 2-phosphate, 100 μg/mL sodium pyruvate, 0.1% bovine serum albumin, 100 units/mL penicillin, 100 μg/mL streptomycin and 25 mM HEPES) prior to digestion with 3% fetal bovine serum (FBS) and 0.2% collagenase-P (Roche Pharmaceuticals) at 37° C. for six hours. Released chondrocytes were filtered through 70 μm cell strainer and centrifuged at 1000 rpm three times for five minutes each in medium listed above supplemented with 10% FBS. The cell pellet was resuspended in 10% FBS supplemented media and plated on 10 cm dishes at 10,000 cells/mL in a 37° C., 5% CO2 humidified incubator until confluent. […]
(§3) GAG degradation was monitored by measuring CS released in cell culture media using the dimethylmethylene blue (DMMB) dye assay and computed with a chondroitin-6-sulfate standard curve. Similarly, type I collagen degradation in cell culture media was monitored using the Sircol Collagen Assay using manufacturer specified protocols (Bio-Color). […]

The subject of another data set is collagen type II. In words: Real-time PCR, collagen type II expression. It counts as cell-based, bovine. The procedure:
(§4) Following the cell culture study, constructs were stored in RNAlater solution (Ambion) at 4° C. for less than one week. Total mRNA was extracted using Nucleospin RNA II (Clontech) according to manufacturer's protocols. Extracted mRNA from all samples was quantified using Nanodrop 2000 spectrophotometer (Thermo Scientific) and reverse transcribed into cDNA using High Capacity cDNA Reverse Transcriptase Kit (Applied Biosystems). Real-time PCR was performed using Taqman Gene Expression Assays (Applied Biosystems) with the following primers: GAPDH (Bt03210913_gl), aggrecan (Bt03212186_ml) and collagen type II (Bt03251861_ml). 60 ng of cDNA template was prepared per 20 μL reaction for the two genes of interest and the endogenous gene. Real-time PCR analysis was carried out using a Taqman PCR Master Mix and 7500 Real-Time PCR System (Applied Biosystems). Data reported was normalized to GAPDH gene expression.
(In qPCR the cycle at which signal appears reflects the starting amount.)

The test system of data set [5] is bovine chondrocytes in collagen scaffolds. In words: In vitro inflammation model: collagen breakdown (Sircol assay). To be noted: cumulative over eight-day culture, with and without 20 ng/mL IL-1β, versus scaffolds with CS. It counts as cell-based. The procedure:
as §1, §2, §3

The next data set relates to aggrecan. Briefly: Real-time PCR, aggrecan expression. To be noted: chondrocytes in collagen scaffolds with versus without mAGC. It counts as cell-based, bovine. The protocol:
as §4

Data set [6] relates to Sprague-Dawley rat knee joints. In words: Animal model of osteoarthritis (surgical induction), microCT. It is filed as in vivo, Sprague-Dawley rats. To be noted: six and eight weeks after OA induction surgery; 10 μl of a 1 μm mAGC weekly starting at week 4. The protocol:
Sprague-Dawley rats (250-300 g) were used for surgery. The patellar tendon, the anterior and posterior cruciate ligaments and the medial, lateral collateral ligaments were transected. The medial and lateral meniscuses were totally menisectomized. The knee joint capsule was repaired with an absorbable suture and the skin was closed with a 4-0 monofilament nylon. Starting at week 4, 10 μl of a 1 μm mAGC was administered weekly.
The extent of inflammation was indicated by the MMP-13 probe (FIG. 18) in Sprague-Dawley rats treated with and without peptidoglycan at four, six and eight weeks post surgery (FIG. 19). […] Injured knees 6 weeks and 8 weeks following OA induction, (FIG. 21, Panels A and D, respectively), injured knees following peptidoglycan treatment (FIG. 21, Panels B and E, respectively), and Normal knee (FIG. 21, Panel C), are shown.

Ends that are not written are not given here.

As for chondroitin sulfate [CS], the “percent degradation of CI” value in data set [1] was determined as 74.7%. Besides, the figures for the “percent degradation of HA” value in data set [2] (0 hr timepoint (about 2 min after hyaluronidase)) and in data set [2] (2 hr timepoint) were “almost complete degradation” and “above 90%”, respectively.
In the case of “mAG(II)C: Collagen type II binding peptidoglycan with peptide WYRGRLGC (SEQ ID NO: 36) (also: attached to glycosaminoglycan backbone)”, the “depth of penetration into tissue” value in data set [3] is “approximately 200 um”.
For “mAGC: HA binding peptidoglycan (aggrecan mimic): GAHWQFNALTVRGGGC (SEQ ID NO: 35) peptides attached to chondroitin sulfate; peptide number not stated (also: attached to chondroitin sulfate)”, the “amount of CS released into cell culture media” value in data set [4] is “significantly decreased”. The results for the “level of collagen type II expression (normalized to GAPDH)” value in the data set with collagen type II (aligned collagen scaffolds) and in the data set on collagen type II (unaligned scaffolds) were “higher in scaffolds prepared with mAGC” and “higher in scaffolds prepared without mAGC”, respectively. For the same substance, the “amount of collagen released into cell culture media” value in data set [5] is on record as “significantly decreased”. In addition, the “aggrecan expression (normalized to GAPDH)” value in the data set with aggrecan is reported as “lower aggrecan expression”. In addition, the “cartilage by MicroCT” value in data set [6] is reported as “re-growth of new cartilage”.

These data come from patent US9217016B2, “Hyaluronic acid-binding synthetic peptidoglycans, preparation, and methods of use” (SYMIC IP, LLC, priority 2011, dated 2015).
